According to patent US12629374B2, “Antimalarial agents” (Merck Sharp & Dohme LLC, priority 2020, dated 2026):
Where two headings read alike, the source gives them in different places.

Tested on: ring stage parasites
Assay: Parasite growth potency assay, 72 hours, LDH readout
Format: cell-based
Details: parasite growth measured by LDH assay after 72 hours at 37° C., 0.7% rings, 2% haematocrit, read-out: EC50
Procedure, shortened: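 Parasite growth was quantified by LDH assay after a −80 °C freeze-thaw. Before that, compound was incubated for 72 h at 37 °C under humidified gas with ring-stage cultures adjusted to 0.7% parasitemia and 2% haematocrit in serum- and albumax-supplemented RPMI-Hepes.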

Row | Structure (SMILES) | EC50 (72 h) | further results
1 | CCC[C@H](c1cccc(C(=O)N[C@@H]2c3ccccc3OC[C@]2(C)O)c1)N1C(=N)NC(CC)(CC)CC1=O [Example 163B, 3-[(1R)-1-(4,4-diethyl-2-imino-6-oxo-hexahydropyrimidin-1-yl)butyl]-N-[(3R,4R)-3-hydroxy-3-methyl-chroman-4-yl]benzamide] |  | EC50: 0.4 nM
2 | CC[C@@H](c1cccc(C(=O)N[C@@H]2c3ccccc3OC(C)(C)[C@H]2O)c1)N1C(=N)NC(CC)(CC)CC1=O [Example 207B, [4,4-diethyl-1-[1-[3-[[(3S,4R)-3-hydroxy-2,2-dimethyl-chroman-4-yl]carbamoyl]phenyl]propyl]-6-oxo-hexahydropyrimidin-2-ylidene]ammonium; 2,2,2-trifluoroacetate] | 72 nM | 
3 | CCC[C@H](c1cccc(C(=O)N[C@H]2c3ccccc3CC2(C)O)c1)N1C(=N)NC(CC)(CC)CC1=O (single isomer, unassigned) [Example 122C] |  | EC50: 57.3 nM
4 | C#CCC[C@@H](c1cccc(C(=O)N[C@@H]2CC3(CCC3)Oc3ccccc32)c1)N1C(=N)NC(CC)(CC)CC1=O (stereo in doubt) [Example 213, [4,4-diethyl-6-oxo-1-[(S)-1-[3-[[(4R)-spiro[chromane-2,1′-cyclobutane]-4-yl]carbamoyl]phenyl]pent-4-ynyl]hexahydropyrimidin-2-ylidene]ammonium; 2,2,2-trifluoroacetate] |  | EC50 (trifluoroacetate): 28.6 nM
5 | CCC1(CC)CC(=O)N([C@H](CCOC)c2cccc(C(=O)N[C@@H]3c4cc(F)ccc4OC(C)(C)[C@H]3O)c2)C(=N)N1 [Example 165B, [4,4-diethyl-1-[(1R)-1-[3-[[(3S,4R)-6-fluoro-3-hydroxy-2,2-dimethyl-chroman-4-yl]carbamoyl]phenyl]-3-methoxy-propyl]-6-oxo-hexahydropyrimidin-2-ylidene]ammonium; 2,2,2-trifluoroacetate] | 0.4 nM | 
6 | COCC[C@H](c1cc(F)cc(C(=O)N[C@@H]2c3ccccc3C[C@]2(C)O)c1)N1C(=N)NC(C)(C)CC1=O [Example 175B, 3-fluoro-N-[(1R,2S)-2-hydroxy-2-methyl-indan-1-yl]-5-[1-(2-imino-4,4-dimethyl-6-oxo-hexahydropyrimidin-1-yl)-3-methoxy-propyl]benzamide] |  | EC50: 9.2 nM
7 | CCC1(CC)CC(=O)N(Cc2cc(C(=O)N[C@@H]3c4ccccc4OC(C)(C)[C@H]3O)ccn2)C(=N)N1 (stereo in doubt) [Example 133, [4,4-diethyl-1-[[4-[(3-hydroxy-2,2-dimethyl-chroman-4-yl)carbamoyl]pyridin-1-ium-2-yl]methyl]-6-oxo-hexahydropyrimidin-2-ylidene]ammonium; 2,2,2-trifluoroacetate] | 3.3 nM | 
8 | C#CCC[C@@H](c1cncc(C(=O)N[C@H]2CC(C)(C)Oc3ccccc32)c1)N1C(=N)N[C@](C)(C(C)C)CC1=O [Example 114B, [(4S)-1-[1-[5-[[(4S)-2,2-dimethylchroman-4-yl]carbamoyl]pyridin-1-ium-3-yl]pent-4-ynyl]-4-isopropyl-4-methyl-6-oxo-hexahydropyrimidin-2-ylidene]ammonium; 2,2,2-trifluoroacetate] | 18.4 nM | 
9 | CCC1(CC)CC(=O)N([C@H](c2cccc(C(=O)N[C@H]3CC(C)(C)Oc4ccccc43)c2)c2cncs2)C(=N)N1 (stereo in doubt) [Example 90C, 3-[(4,4-diethyl-2-imino-6-oxo-hexahydropyrimidin-1-yl)-thiazol-5-yl-methyl]-N-(2,2-dimethylchroman-4-yl)benzamide] | 12 nM | 
10 | CCC1(CC)CC(=O)N(C(CC(O)C(F)(F)F)c2cccc(C(=O)N[C@@H]3c4ccccc4C[C@H]3O)c2)C(=N)N1 (single isomer, unassigned) [Example 236A] |  | EC50: 55 nM
11 | CCC1(CC)CC(=O)N([C@H](CCOC)c2cccc(C(=O)NC3c4ccccc4OC(C(F)(F)F)C3O)c2)C(=N)N1 (stereo partly drawn) [Example 151, [4,4-diethyl-1-[(1R)-1-[3-[[3-hydroxy-2-(trifluoromethyl)chroman-4-yl]carbamoyl]phenyl]-3-methoxy-propyl]-6-oxo-hexahydropyrimidin-2-ylidene]ammonium; 2,2,2-trifluoroacetate] | 1.1 nM | 
12 | C#CCCC(c1cccc(C(=O)NC2CC(C)(C)Oc3ccccc32)c1)N1C(=N)NC(CC)(CC)CC1=O [Example 214B, 3-[(1R)-1-(4,4-diethyl-2-imino-6-oxo-hexahydropyrimidin-1-yl)pent-4-ynyl]-N-(2,2-dimethylchroman-4-yl)benzamide] |  | EC50: 31.2 nM
13 | CC(C)[C@]1(C)CC(=O)N([C@H](C)c2cccc(C(=O)N[C@@H]3c4ccccc4C[C@H]3O)c2)C(=N)N1 [Example 27, [(4S)-1-[1-[3-[[(1R,2R)-2-hydroxyindan-1-yl]carbamoyl]phenyl]ethyl]-4-isopropyl-4-methyl-6-oxo-hexahydropyrimidin-2-ylidene]ammonium; 2,2,2-trifluoroacetate] | 3.2 nM | 
14 | CC[C@]1(C)CC(=O)N(C(CCOC(F)F)c2cccc(C(=O)NC3c4ccccc4OC(C)(C)C3(C)O)c2)C(=N)N1 (single isomer, unassigned) [Example 240A] |  | EC50: 91.6 nM
15 | CCC1(CC)NC(=N)N(Cc2cc(F)cc(C(=O)N[C@H]3CCOc4ccccc43)c2)C(=O)C1C (stereo partly drawn) [Example 43, [1-[[3-[[(4S)-chroman-4-yl]carbamoyl]-5-fluoro-phenyl]methyl]-4,4-diethyl-5-methyl-6-oxo-hexahydropyrimidin-2-ylidene]ammonium; 2,2,2-trifluoroacetate] |  | EC50 (trifluoroacetate): 7.2 nM
16 | COCC[C@H](c1cc(F)cc(C(=O)N[C@@H]2c3ccccc3C[C@H]2O)c1)N1C(=N)NC(C)(C)CC1=O [Example 169, [1-[1-[3-fluoro-5-[[(1R,2R)-2-hydroxyindan-1-yl]carbamoyl]phenyl]-3-methoxy-propyl]-4,4-dimethyl-6-oxo-hexahydropyrimidin-2-ylidene]ammonium; 2,2,2-trifluoroacetate] | 4.7 nM | 
17 | CCC1(CC)CC(=O)N(Cc2cc(C(=O)NC3CC(C)(C)Oc4ccccc43)ccn2)C(=N)N1 (stereo not drawn) [Example 80, [1-[[4-[(2,2-dimethylchroman-4-yl)carbamoyl]pyridin-1-ium-2-yl]methyl]-4,4-diethyl-6-oxo-hexahydropyrimidin-2-ylidene]ammonium; 2,2,2-trifluoroacetate] | 1.7 nM | 
18 | CCC[C@H](c1cccc(C(=O)N[C@@H]2c3ccccc3OCC2O)c1)N1C(=N)NC(CC)(CC)CC1=O (single isomer, unassigned) [Example 127B] | 1.2 nM | 
19 | CCC1(CC)CC(=O)N([C@H](CCS(C)(=O)=O)c2cccc(C(=O)N[C@H]3CCOc4ccccc43)c2)C(=N)N1 [Example 161, [1-[1-[3-[[(4S)-chroman-4-yl]carbamoyl]phenyl]-3-methylsulfonyl-propyl]-4,4-diethyl-6-oxo-hexahydropyrimidin-2-ylidene]ammonium; 2,2,2-trifluoroacetate] | 23 nM | 
20 | CCC1(CC)CC(=O)N([C@H](CCOC)c2cccc(C(=O)N[C@@H]3c4ccccc4OCC3(C)O)c2)C(=N)N1 (stereo in doubt) [Example 143A, 3-[1-(4,4-diethyl-2-imino-6-oxo-hexahydropyrimidin-1-yl)-3-methoxy-propyl]-N-(3-hydroxy-3-methyl-chroman-4-yl)benzamide] | 2.2 nM | 
21 | CCC1(CC)CC(=O)N(C(CCOC)c2ccc(C(F)(F)F)c(C(=O)N[C@@H]3c4ccccc4C[C@]3(C)O)c2)C(=N)N1 (stereo partly drawn) [Example 242, 5-[1-(4,4-diethyl-2-imino-6-oxo-hexahydropyrimidin-1-yl)-3-methoxy-propyl]-N-[(1R,2S)-2-hydroxy-2-methyl-indan-1-yl]-2-(trifluoromethyl)benzamide] | 2.28 nM | 
22 | CCC1(CC)CC(=O)N([C@H](c2cccnc2)c2cccc(C(=O)N[C@@H]3c4ccccc4C[C@H]3O)c2)C(=N)N1 [Example 109A, [4,4-diethyl-1-[[3-[[(1R,2R)-2-hydroxyindan-1-yl]carbamoyl]phenyl]-pyridin-1-ium-3-yl-methyl]-6-oxo-hexahydropyrimidin-2-ylidene]ammonium; 2,2,2-trifluoroacetate] | 1.6 nM | 
23 | CCC1(C)CC(=O)N([C@H](CCOC)c2cccc(C(=O)N[C@@H]3c4ccccc4CC3(C)O)c2)C(=N)N1 (stereo partly drawn) [Example 196A, 3-[(1R)-1-(4-ethyl-2-imino-4-methyl-6-oxo-hexahydropyrimidin-1-yl)-3-methoxy-propyl]-N-[(1R,2S)-2-hydroxy-2-methyl-indan-1-yl]benzamide] |  | EC50: 6.5 nM
24 | CC[C@]1(C(C)C)CC(=O)N(Cc2cc(F)cc(C(=O)N[C@@H]3c4ccccc4C[C@H]3O)c2)C(=N)N1 [Example 45, [(4R)-4-ethyl-1-[[3-fluoro-5-[[(1R,2R)-2-hydroxyindan-1-yl]carbamoyl]phenyl]methyl]-4-isopropyl-6-oxo-hexahydropyrimidin-2-ylidene]ammonium; 2,2,2-trifluoroacetate] | 2.6 nM | 
25 | CCC1(CC)CC(=O)N([C@H](C)c2cccc(C(=O)N[C@@H]3c4ccccc4C[C@@]3(C)O)c2)C(=N)N1 [Example 192A, 3-[(1R)-1-(4,4-diethyl-2-imino-6-oxo-hexahydropyrimidin-1-yl)ethyl]-N-[(1R,2R)-2-hydroxy-2-methyl-indan-1-yl]benzamide] | 2.1 nM | 
26 | CCC1(CC)CC(=O)N([C@H](CCOC)c2cccc(C(=O)N[C@@H]3c4ccccc4OC[C@H]3O)c2)C(=N)N1 [Example 152B, [4,4-diethyl-1-[(1R)-1-[3-[[(3S,4R)-3-hydroxychroman-4-yl]carbamoyl]phenyl]-3-methoxy-propyl]-6-oxo-hexahydropyrimidin-2-ylidene]ammonium; 2,2,2-trifluoroacetate] | 2 nM | 
27 | CC#CCCC(c1cccc(C(=O)NC2CC(C)(C)Oc3ccccc32)c1)N1C(=N)NC(CC)(CC)CC1=O (stereo not drawn) [Example 83A, [1-[1-[3-[(2,2-dimethylchroman-4-yl)carbamoyl]phenyl]hex-4-ynyl]-4,4-diethyl-6-oxo-hexahydropyrimidin-2-ylidene]ammonium; 2,2,2-trifluoroacetate] | 62.9 nM | 
